Results on nine compounds are retold here after US20020026053A1, “Novel 3-(substituted) -2- indolinones compounds and use thereof as inhibitors of protein kinase activity” (priority 1997, published 2002).

For the experiment, the system named is FLK-1 receptor. The experiment can be described thus: FLK-1 Assay (cellular/catalytic ELISA, VEGF-stimulated phosphotyrosine). Also on record: concentration or dose not given beside the values. Type of experiment: cell-based. The method, boiled down: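 NIH3T3 C7#3 cells engineered to express Flk-1 were serum-starved overnight (0.1% FBS), then exposed to compound for 2 h at 37 °C (final dilution 1:200, 0.5% DMSO) before VEGF stimulation. Lysates captured on anti-FLK-1 antiserum plates; phosphotyrosine detected by UB40 antibody/POD-ABTS ELISA versus untreated controls.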
(In general: An ELISA detects its analyte on a solid surface through an enzyme-linked reagent.)
Take `Cc1ccccc1C=C1C(=O)Nc2ccc(Br)c(C)c21` [10735/C02]: the “Flk Kinase % Inhibition (P.110)” value is listed as 0.1%.

Turning to `Cc1c(Br)cc(Br)c2c1C(=Cc1ccc(Br)s1)C(=O)N2` [10734/H11], the “Flk Kinase % Inhibition (P.110)” value was determined as 9.9%.

Consider `O=C1Nc2ccc(S(=O)(=O)Nc3ccc(C(F)(F)F)cc3)cc2C1=Cc1ccc(-c2ccccc2)cc1` [10735/E11], for which the “Flk Kinase % Inhibition (P.110)” value was 21.9%.

Turning to `O=C1Nc2ccc(S(=O)(=O)Nc3ccc(C(F)(F)F)cc3)cc2C1=Cc1cc(F)cc(F)c1` [10735/E04], the “Flk Kinase % Inhibition (P.110)” value was determined as 12.2%.

Take `Cc1c(Br)ccc2c1C(=Cc1ccccc1C#N)C(=O)N2` [10735/C07]: the “Flk Kinase % Inhibition (P.110)” value is 9.6%.

`Cc1c(Br)ccc2c1C(=Cc1c(F)cccc1F)C(=O)N2` [10735/C08]: the “Flk Kinase % Inhibition (P.110)” value is reported as 10.1%.

As to `O=C1Nc2ccc(I)cc2C1=Cc1cccc(C(F)(F)F)c1` [10735/B05], the “Flk Kinase % Inhibition (P.110)” value is given as 7.4%.

In the case of `Cc1c(Br)ccc2c1C(=Cc1ccc(F)c(F)c1)C(=O)N2` [10735/C03], the “Flk Kinase % Inhibition (P.110)” value came out at 0.9%.

Take `O=C1Nc2ccc(CCCl)cc2C1=Cc1ccc(F)c(F)c1` [10735/G03]: the “Flk Kinase % Inhibition (P.110)” value was determined as 6.8%.
